Laboratory results taken from patent publication US9253983B2, “Triazole compound and use thereof” (KUREHA CORPORATION, priority 2011, dated 2016).

Legend:
Botrytis cinerea [1] = assay: Controlling effect on cucumber gray mold by foliage spray treatment (Tests 1 and 2); type: in vivo; settings: four days after inoculation
Protocol: The cucumber plants had been grown in square plastic pots (6 cm×6 cm). After the suspension was then left to dry, paper discs (8 mm in diameter) impregnated with a spore suspension of Botrytis cinerea w ere placed on the leaves, and the plants were kept at 20° C. in a high humidity environment. Four days after inoculation, the lesion degree of the cucumber gray mold was examined in accordance with the criteria shown in Table 1, and the protective values were calculated by the following equation: Protective value (%)=(1−Average lesion degree in sprayed plot/Average lesion degree in unsprayed plot)×100.
The cucumber plants had been grown in square plastic pots (6 cm×6 cm). After the leaves were air-dried, paper discs (8 mm in diameter) impregnated with a spore suspension of cucumber graymold-causing microorganisms were placed on the leaves, and the plants were kept at 20° C. in a high humidity environment. 4 days after the inoculation, the lesion degree of the cucumber gray mold was examined, and the protective values were calculated as were in Experiment Example 1.

Puccinia recondita = assay: Controlling effect on wheat brown rust (leaf rust) by foliage spray treatment (Tests 1 and 2); type: in vivo; settings: foliage spray 0.8 mg/L, 1,000 L/ha, 11 days after inoculation
Protocol: The wheat plants had been grown in square plastic pots (6 cm×6 cm). The suspensions were left to dry, and inoculated with spores of Puccinia recondita (adjusted at 200 spores per field of vision, Gramin S was added at 60 ppm) by spraying, and kept at 25° C. in a high humidity environment for 48 hours. After that, the plants were kept in a greenhouse. 11 days after the inoculation, the lesion degree of the wheat leaf rust was examined in accordance with the criteria shown in Table 4, and the protective values were calculated by the following equation. Protective value (%)=(1−Average lesion degree in sprayed plot/Average lesion degree in unsprayed plot)×100
The wheat plants had been grown in square plastic pots (6 cm×6 cm). The leaves were air-dried, and inoculated with spores of Puccinia recondita (adjusted at 200 spores per field of vision, Gramin S was added at 60 ppm) by spraying, and kept at 25° C. in a high humidity environment for 48 hours. After that, the plants were kept in a greenhouse. 11 days after the inoculation, the lesion degree of the wheat leaf rust was examined, and the protective values were calculated as were in Experiment Example 2.

Phaeosphaeria nodorum = assay: Test 1 for antifungal effect, plate medium: P.n; type: cell-based; settings: PDA plate medium
Protocol: (§1) Compound (1-1a) or Compound (1-2a) was dissolved in dimethyl sulfoxide, and the resulting solution was added to a PDA medium (potato dextrose-agar medium) at about 60° C. The medium and the solution were mixed thoroughly in a conical flask, poured into a petri dish, and allowed to solidify. In this way, a plate medium containing Compound (1-1a) or Compound (1-2a) at a certain concentration was prepared.
(§2) Meanwhile, test microorganisms cultured on a plate medium in advance were cut out with the use of a cork borer 4 mm in diameter, and were inoculated onto the compound-containing plate medium. After the inoculation, the microorganisms were cultured at their optimum growth temperatures (for example, refer to LIST OF CULTURES 1996 microorganisms 10th edition, Institute for Fermentation (foundation)) for 1 day to 7 days, and their growth was determined by measuring the diameter of their flora. The extent of growth of the microorganisms on the compound-containing plate medium was compared with that of microorganisms on a plate medium where no compound was added, and mycelial growth inhibition rate was calculated by the following equation: R=100(dc−dt)/dc where R is mycelial growth inhibition rate (%), dc is the flora diameter in untreated plate, and dt is the flora diameter in plate treated with the compound.
(§3) A larger antifungal index indicates a better antifungal effect.

Microdochium nivale = assay: Test 1 for antifungal effect, plate medium: M.n; type: cell-based; settings: PDA plate medium
Protocol: as §1, §2, §3

Gaeumannomyces graminis = assay: Test 1 for antifungal effect, plate medium: G.g; type: cell-based; settings: PDA plate medium
Protocol: as §1, §2, §3

Rhizopus oryzae = assay: Test 1 for antifungal effect, plate medium: R.o; type: cell-based; settings: PDA plate medium
Protocol: as §1, §2, §3

Botrytis cinerea [2] = assay: Test 1 for antifungal effect, plate medium: B.c; type: cell-based; settings: PDA plate medium
Protocol: as §1, §2, §3

Glomerella cingurata = assay: Test 1 for antifungal effect, plate medium: G.c; type: cell-based; settings: PDA plate medium
Protocol: as §1, §2, §3

Pyrenophora graminea = assay: Test 2 for antifungal effect, plate medium: P.g; type: cell-based; settings: PDA plate medium
Protocol: as §1, with “(1-1b)” for “(1-1a)”, “(1-2b)” for “(1-2a)”
Meanwhile, test microorganisms cultured on a plate medium in advance were cut out with the use of a cork borer 4 mm in diameter, and were inoculated onto the compound-containing plate medium. After the inoculation, the pathogens were cultured at their optimum growth temperatures (for example, refer to LIST OF CULTURES 1996 microorganisms 10th edition, Institute for Fermentation (foundation)) for 1 day to 7 days, and their growth was determined by measuring the diameter of their flora. The extent of growth of the pathogens on the compound-containing plate medium was compared with that of pathogens on a plate medium where no compound was added, and mycelial growth inhibition rate was calculated as in Experiment Example 10. Note that, in Experiment Example 11, controls used in the antifungal effect tests are Compound (1-1a) and Compound (1-2a) instead of Compound (1-1b) and Compound (1-2b), respectively.
The results were rated on a 1-to-5 scale as in Experiment Example 10.

[3] = foliage spray 12.5 mg/L, 1,000 L/ha

CC1(CCl)CCC(Cc2ccc(F)cc2)C1(O)Cn1cncn1 (single isomer, unassigned) [Compound (1-2a), (1,2-cis, 1,5-cis)-5-(4-fluorobenzyl)-2-chloromethyl-2-methyl-1-(1H-1,2,4-triazole-1-ylmethyl)cyclopentanol]
Protective value (%) (Botrytis cinerea [1]; foliage spray 3.1 mg/L, 1,000 L/ha): 40%
Protective value (%) (Botrytis cinerea [1]; [3]): 100%
Protective value (%) (Puccinia recondita): 91%
Antifungal index (mycelial growth inhibition rate) (Phaeosphaeria nodorum; 0.16 mg/L): 1 (Less than 60%)
Antifungal index (mycelial growth inhibition rate) (Phaeosphaeria nodorum; 0.31 mg/L): 2 (Less than 70% but not less than 60%)
Antifungal index (mycelial growth inhibition rate) (Phaeosphaeria nodorum; 0.63 mg/L): 5 (90% or greater)
Antifungal index (mycelial growth inhibition rate) (Phaeosphaeria nodorum; 1.25 mg/L): 5 (90% or greater)
Antifungal index (mycelial growth inhibition rate) (Phaeosphaeria nodorum; 2.50 mg/L): 5 (90% or greater)
Antifungal index (mycelial growth inhibition rate) (Microdochium nivale; 0.16 mg/L): 1 (Less than 60%)
Antifungal index (mycelial growth inhibition rate) (Microdochium nivale; 0.31 mg/L): 1 (Less than 60%)
Antifungal index (mycelial growth inhibition rate) (Microdochium nivale; 0.63 mg/L): 2 (Less than 70% but not less than 60%)
Antifungal index (mycelial growth inhibition rate) (Microdochium nivale; 1.25 mg/L): 3 (Less than 80% but not less than 70%)
Antifungal index (mycelial growth inhibition rate) (Microdochium nivale; 2.50 mg/L): 5 (90% or greater)
Antifungal index (mycelial growth inhibition rate) (Gaeumannomyces graminis; 0.16 mg/L): 1 (Less than 60%)
Antifungal index (mycelial growth inhibition rate) (Gaeumannomyces graminis; 0.31 mg/L): 4 (Less than 90% but not less than 80%)
Antifungal index (mycelial growth inhibition rate) (Gaeumannomyces graminis; 0.63 mg/L): 5 (90% or greater)
Antifungal index (mycelial growth inhibition rate) (Gaeumannomyces graminis; 1.25 mg/L): 5 (90% or greater)
Antifungal index (mycelial growth inhibition rate) (Gaeumannomyces graminis; 2.50 mg/L): 5 (90% or greater)
Antifungal index (mycelial growth inhibition rate) (Rhizopus oryzae; 0.16 mg/L): 1 (Less than 60%)
Antifungal index (mycelial growth inhibition rate) (Rhizopus oryzae; 0.31 mg/L): 1 (Less than 60%)
Antifungal index (mycelial growth inhibition rate) (Rhizopus oryzae; 0.63 mg/L): 3 (Less than 80% but not less than 70%)
Antifungal index (mycelial growth inhibition rate) (Rhizopus oryzae; 1.25 mg/L): 5 (90% or greater)
Antifungal index (mycelial growth inhibition rate) (Rhizopus oryzae; 2.50 mg/L): 5 (90% or greater)
Antifungal index (mycelial growth inhibition rate) (Botrytis cinerea [2]; 0.16 mg/L): 3 (Less than 80% but not less than 70%)
Antifungal index (mycelial growth inhibition rate) (Botrytis cinerea [2]; 0.31 mg/L): 5 (90% or greater)
Antifungal index (mycelial growth inhibition rate) (Botrytis cinerea [2]; 0.63 mg/L): 5 (90% or greater)
Antifungal index (mycelial growth inhibition rate) (Botrytis cinerea [2]; 1.25 mg/L): 5 (90% or greater)
Antifungal index (mycelial growth inhibition rate) (Botrytis cinerea [2]; 2.50 mg/L): 5 (90% or greater)
Antifungal index (mycelial growth inhibition rate) (Glomerella cingurata; 0.16 mg/L): 5 (90% or greater)
Antifungal index (mycelial growth inhibition rate) (Glomerella cingurata; 0.31 mg/L): 5 (90% or greater)
Antifungal index (mycelial growth inhibition rate) (Glomerella cingurata; 0.63 mg/L): 5 (90% or greater)
Antifungal index (mycelial growth inhibition rate) (Glomerella cingurata; 1.25 mg/L): 5 (90% or greater)
Antifungal index (mycelial growth inhibition rate) (Glomerella cingurata; 2.50 mg/L): 5 (90% or greater)
Antifungal index (mycelial growth inhibition rate) (Pyrenophora graminea; 0.04 mg/L): 1 (Less than 60%)
Antifungal index (mycelial growth inhibition rate) (Pyrenophora graminea; 0.08 mg/L): 2 (Less than 70% but not less than 60%)
Antifungal index (mycelial growth inhibition rate) (Pyrenophora graminea; 0.16 mg/L): 4 (Less than 90% but not less than 80%)
Antifungal index (mycelial growth inhibition rate) (Pyrenophora graminea; 0.31 mg/L): 5 (90% or greater)
Antifungal index (mycelial growth inhibition rate) (Pyrenophora graminea; 0.63 mg/L): 5 (90% or greater)
Antifungal index (mycelial growth inhibition rate) (Pyrenophora graminea; 1.25 mg/L): 5 (90% or greater)

CC1(CCl)CCC(Cc2ccc(Cl)cc2)C1(O)Cn1cncn1 (single isomer, unassigned) [Compound (1-1a), (1,2-cis, 1,5-cis)-5-(4-chlorobenzyl)-2-chloromethyl-2-methyl-1-(1H-1,2,4-triazole-1-ylmethyl)cyclopentanol]
Protective value (%) (Botrytis cinerea [1]; [3]): 100%
Protective value (%) (Puccinia recondita): 95%
Antifungal index (mycelial growth inhibition rate) (Phaeosphaeria nodorum; 0.16 mg/L): 2 (Less than 70% but not less than 60%)
Antifungal index (mycelial growth inhibition rate) (Phaeosphaeria nodorum; 0.31 mg/L): 3 (Less than 80% but not less than 70%)
Antifungal index (mycelial growth inhibition rate) (Phaeosphaeria nodorum; 0.63 mg/L): 5 (90% or greater)
Antifungal index (mycelial growth inhibition rate) (Phaeosphaeria nodorum; 1.25 mg/L): 5 (90% or greater)
Antifungal index (mycelial growth inhibition rate) (Phaeosphaeria nodorum; 2.50 mg/L): 5 (90% or greater)
Antifungal index (mycelial growth inhibition rate) (Microdochium nivale; 0.16 mg/L): 1 (Less than 60%)
Antifungal index (mycelial growth inhibition rate) (Microdochium nivale; 0.31 mg/L): 3 (Less than 80% but not less than 70%)
Antifungal index (mycelial growth inhibition rate) (Microdochium nivale; 0.63 mg/L): 3 (Less than 80% but not less than 70%)
Antifungal index (mycelial growth inhibition rate) (Microdochium nivale; 1.25 mg/L): 4 (Less than 90% but not less than 80%)
Antifungal index (mycelial growth inhibition rate) (Microdochium nivale; 2.50 mg/L): 5 (90% or greater)
Antifungal index (mycelial growth inhibition rate) (Gaeumannomyces graminis; 0.16 mg/L): 3 (Less than 80% but not less than 70%)
Antifungal index (mycelial growth inhibition rate) (Gaeumannomyces graminis; 0.31 mg/L): 5 (90% or greater)
Antifungal index (mycelial growth inhibition rate) (Gaeumannomyces graminis; 0.63 mg/L): 5 (90% or greater)
Antifungal index (mycelial growth inhibition rate) (Gaeumannomyces graminis; 1.25 mg/L): 5 (90% or greater)
Antifungal index (mycelial growth inhibition rate) (Gaeumannomyces graminis; 2.50 mg/L): 5 (90% or greater)
Antifungal index (mycelial growth inhibition rate) (Rhizopus oryzae; 0.16 mg/L): 3 (Less than 80% but not less than 70%)
Antifungal index (mycelial growth inhibition rate) (Rhizopus oryzae; 0.31 mg/L): 4 (Less than 90% but not less than 80%)
Antifungal index (mycelial growth inhibition rate) (Rhizopus oryzae; 0.63 mg/L): 5 (90% or greater)
Antifungal index (mycelial growth inhibition rate) (Rhizopus oryzae; 1.25 mg/L): 5 (90% or greater)
Antifungal index (mycelial growth inhibition rate) (Rhizopus oryzae; 2.50 mg/L): 5 (90% or greater)
Antifungal index (mycelial growth inhibition rate) (Botrytis cinerea [2]; 0.16 mg/L): 3 (Less than 80% but not less than 70%)
Antifungal index (mycelial growth inhibition rate) (Botrytis cinerea [2]; 0.31 mg/L): 5 (90% or greater)
Antifungal index (mycelial growth inhibition rate) (Botrytis cinerea [2]; 0.63 mg/L): 5 (90% or greater)
Antifungal index (mycelial growth inhibition rate) (Botrytis cinerea [2]; 1.25 mg/L): 5 (90% or greater)
Antifungal index (mycelial growth inhibition rate) (Botrytis cinerea [2]; 2.50 mg/L): 5 (90% or greater)
Antifungal index (mycelial growth inhibition rate) (Glomerella cingurata; 0.16 mg/L): 5 (90% or greater)
Antifungal index (mycelial growth inhibition rate) (Glomerella cingurata; 0.31 mg/L): 5 (90% or greater)
Antifungal index (mycelial growth inhibition rate) (Glomerella cingurata; 0.63 mg/L): 5 (90% or greater)
Antifungal index (mycelial growth inhibition rate) (Glomerella cingurata; 1.25 mg/L): 5 (90% or greater)
Antifungal index (mycelial growth inhibition rate) (Glomerella cingurata; 2.50 mg/L): 5 (90% or greater)
Antifungal index (mycelial growth inhibition rate) (Pyrenophora graminea; 0.04 mg/L): 2 (Less than 70% but not less than 60%)
Antifungal index (mycelial growth inhibition rate) (Pyrenophora graminea; 0.08 mg/L): 3 (Less than 80% but not less than 70%)
Antifungal index (mycelial growth inhibition rate) (Pyrenophora graminea; 0.16 mg/L): 4 (Less than 90% but not less than 80%)
Antifungal index (mycelial growth inhibition rate) (Pyrenophora graminea; 0.31 mg/L): 5 (90% or greater)
Antifungal index (mycelial growth inhibition rate) (Pyrenophora graminea; 0.63 mg/L): 5 (90% or greater)
Antifungal index (mycelial growth inhibition rate) (Pyrenophora graminea; 1.25 mg/L): 5 (90% or greater)
